Ten molecules from patent publication US7727980B2, “Tricyclic androgen receptor modulator compounds and methods” (priority 2001, dated 2010) can be followed below.

Test [1] deals with T1, human AR (Homo sapiens, UniProt P10275).
T1 sequence (P10275 1-920): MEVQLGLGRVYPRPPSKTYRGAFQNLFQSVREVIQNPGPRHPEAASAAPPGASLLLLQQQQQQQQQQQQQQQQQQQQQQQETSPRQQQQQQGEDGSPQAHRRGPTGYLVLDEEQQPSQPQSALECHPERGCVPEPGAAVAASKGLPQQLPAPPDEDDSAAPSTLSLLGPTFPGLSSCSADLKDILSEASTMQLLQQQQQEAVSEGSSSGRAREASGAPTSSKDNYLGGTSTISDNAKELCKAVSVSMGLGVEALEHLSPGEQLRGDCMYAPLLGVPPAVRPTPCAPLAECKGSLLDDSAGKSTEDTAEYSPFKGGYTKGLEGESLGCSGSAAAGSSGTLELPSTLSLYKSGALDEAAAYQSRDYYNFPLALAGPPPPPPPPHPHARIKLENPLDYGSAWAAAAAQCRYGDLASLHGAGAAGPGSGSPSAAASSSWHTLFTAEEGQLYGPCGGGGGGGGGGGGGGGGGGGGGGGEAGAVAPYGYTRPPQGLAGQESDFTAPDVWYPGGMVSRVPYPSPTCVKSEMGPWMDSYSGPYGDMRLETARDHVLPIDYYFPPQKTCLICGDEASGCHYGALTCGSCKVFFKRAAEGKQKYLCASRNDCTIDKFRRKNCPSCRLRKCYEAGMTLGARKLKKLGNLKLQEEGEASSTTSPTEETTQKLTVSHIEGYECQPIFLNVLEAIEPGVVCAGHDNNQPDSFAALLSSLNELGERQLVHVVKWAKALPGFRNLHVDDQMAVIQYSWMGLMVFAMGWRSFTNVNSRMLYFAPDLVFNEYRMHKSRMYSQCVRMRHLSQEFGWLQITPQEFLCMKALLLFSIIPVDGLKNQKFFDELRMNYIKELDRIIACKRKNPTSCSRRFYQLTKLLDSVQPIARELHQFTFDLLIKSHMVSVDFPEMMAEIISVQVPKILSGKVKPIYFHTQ
In words: AR whole cell competitive binding assay (3H-DHT), transfected COS-1 cells. On the set-up: expressed in transfected cells; transient transfection with pRShAR. The conditions noted are these: COS-1 cells, 1 nM 3H-DHT, Cheng-Prusoff from IC50. Here is the method:
AR Binding: For the whole cell binding assay, COS-1 cells in 96-well microtiter plates containing DMEM-10% FBS were transfected as described above with the following plasmid DNA: pRShAR (2 ng/well), pRS-β-Gal (50 ng/well) and pGEM (48 ng/well). Six hours after transfection, media was removed, the cells were washed with PBS and fresh media was added. The next day, the media was changed to DMEM-serum free to remove any endogenous ligand that might be complexed with the receptor in the cells.
Three replicates were used for each sample. […] The remaining media was removed, the cells were washed three times with PBS to remove unbound ligand and cells were lysed with a Triton X-100-based buffer.
For the saturation analyses, the difference between the total binding and the nonspecific binding, normalized by the β-Gal rate, was defined as specific binding. […] The Ki values were determined by application of the Cheng-Prusoff equation to the IC50 values, where: […]
After correcting for non-specific binding, IC50 values were determined. […] The IC50 value was determined graphically from a log-logit plot of the data. The Ki values were determined by application of the Cheng-Prusoff equation to the IC50 values, the labeled ligand concentration and the Kd of the labeled ligand.

Test [2] has as its target T1, human AR. In words: Co-transfection assay, AR agonist activity, CV-1 cells. Format: cell-based. On the set-up: expressed in transfected cells; host or cells: CV-1 cells (African green monkey kidney fibroblasts), transient transfection with pRShAR. The following applies: for AR Agonist CV-1 Cells Efficacy (%): percent maximal response relative to reference agonist DHT. The text has this: (§1) The co-transfection assay provides a method for identifying functional agonists and partial agonists which mimic, or antagonists which inhibit, the effect of native hormones and quantifying their activity for responsive IR proteins. In this regard, the co-transfection assay mimics an in vivo system in the laboratory. Importantly, activity in the co-transfection assay correlates very well with known in vivo activity, such that the co-transfection assay functions as a qualitative and quantitative predictor of a tested compounds in vivo pharmacology. See, e.g., T. Berger et al. 41 J. Steroid Biochem. Molec.
(§2) In the co-transfection assay, a cloned cDNA for an IR (e.g., human PR, AR or GR) under the control of a constitutive promoter (e.g., the SV 40 promoter) is introduced by transfection (a procedure to induce cells to take up foreign genes) into a background cell substantially devoid of endogenous IRs. This introduced gene directs the recipient cells to make the IR protein of interest. A second gene is also introduced (co-transfected) into the same cells in conjunction with the IR gene. This second gene, comprising the cDNA for a reporter protein, such as firefly luciferase (LUC), controlled by an appropriate hormone responsive promoter containing a hormone response element (HRE). This reporter plasmid functions as a reporter for the transcription-modulating activity of the target IR. Thus, the reporter acts as a surrogate for the products (mRNA then protein) normally expressed by a gene under control of the target receptor and its native hormone.
(§3) The co-transfection assay can detect small molecule agonists or antagonists of target IRs. Exposing the transfected cells to an agonist ligand compound increases reporter activity in the transfected cells. This activity can be conveniently measured, e.g., by increasing luciferase production, which reflects compound-dependent, IR-mediated increases in reporter transcription. […] To detect antagonists, the co-transfection assay is carried out in the presence of a constant concentration of an agonist to the target IR (e.g., progesterone for PR) known to induce a defined reporter signal. Increasing concentrations of a suspected antagonist will decrease the reporter signal (e.g., luciferase production). The co-transfection assay is therefore useful to detect both agonists and antagonists of specific IRs. Furthermore, it determines not only whether a compound interacts with a particular IR, but whether this interaction mimics (agonizes) or blocks (antagonizes) the effects of the native regulatory molecules on target gene expression, as well as the specificity and strength of this interaction.
(§4) CV-1 cells (African green monkey kidney fibroblasts) were cultured in the presence of Dulbecco's Modified Eagle Medium (DMEM) supplemented with 10% charcoal resin-stripped fetal bovine serum then transferred to 96-well microtiter plates one day prior to transfection.
(§5) The reporter plasmid, MTV-LUC, contains the cDNA for firefly luciferase (LUC) under control of the mouse mammary tumor virus (MTV) long terminal repeat, a conditional promoter containing an androgen response element. See e.g., Berger et al. supra. In addition, pRS-β-Gal, coding for constitutive expression of E. coli β-galactosidase (β-Gal), was included as an internal control for evaluation of transfection efficiency and compound toxicity.
(§6) Six hours after transfection, media was removed and the cells were washed with phosphate-buffered saline (PBS). […] Three to four replicates were used for each sample. Transfections and subsequent procedures were performed on a Biomek 1000 automated laboratory work station.
(§7) After 40 hours, the cells were washed with PBS, lysed with a Triton X-100-based buffer and assayed for LUC and β-Gal activities using a luminometer or spectrophotometer, respectively. For each replicate, the normalized response (NR) was calculated as: LUC response/β-Gal rate • where β-Gal rate=β-Gal·1×10^−5/β-Gal incubation time.

In test [3] the target is T1, human AR. In words: Co-transfection assay, AR antagonist activity in presence of DHT, CV-1 cells. On the set-up: expressed in transfected cells; host or cells: CV-1 cells (African green monkey kidney fibroblasts), transient transfection with pRShAR. The following applies: CV-1 cells; for IC50: antagonist potency or IC50, DHT at its EC50 concentration; for AR Antagonist CV-1 Cells Efficacy (%): percent maximal inhibition, DHT at its EC50 concentration. Type of test: cell-based.
Excerpt: as §1, §2, §3, §4, §5, §6, §7

[4] abbreviates: agonist potency or EC50, read-out: AR Agonist CV-1 Cells Potency.
The mark [5] stands for this setting: read-out: AR Antagonist CV-1 Cells Potency.
Where [6] appears, read: AR Agonist CV-1 Cells Potency (nM), agonist potency or EC50.
Setting [7] is: AR Antagonist CV-1 Cells Potency (nM).

Like-named read-outs stand apart in the source and are kept apart here.

What is called Ki is the equilibrium dissociation constant of an inhibitor or competing ligand from its target. For “5-Allyl-6-methyl-4-trifluoromethyl-7H-pyrrolo[3,2-f]quinolin-2(1H)-one [Compound 114]”, the inhibitory constant (Ki) on human AR [1] (read-out: AR Binding Ki) was determined as 81 nM. Moreover, the EC50 on human AR [2] (setting [4]) is over 10000 nM. Besides, the “AR Agonist CV-1 Cells Efficacy (%)” value on human AR [2] is “na (na = not active (i.e. efficacy of <20 and potency of >10,000))”. Moreover, the IC50 at human AR [3] (setting [5]) came to 6.6 nM. For the same molecule, the “AR Antagonist CV-1 Cells Efficacy (%)” value at human AR [3] came out at 81%.

Take “5-Ethyl-6-propyl-7-(2,2,2-trifluoroethyl)-4-trifluoromethyl-7H-pyrrolo[3,2-f]quinolin-2(1H)-one [Compound 155]”: the inhibition constant Ki on human AR [1] (read-out: AR Binding Ki) is 7.4 nM. In addition, the EC50 on human AR [2] (setting [4]) turned out to be 9.4 nM. For the same molecule, the “AR Agonist CV-1 Cells Efficacy (%)” value on human AR [2] is 59%. The IC50 at human AR [3] (setting [5]) is over 10000 nM. In addition, the “AR Antagonist CV-1 Cells Efficacy (%)” value at human AR [3] was “na (na = not active (i.e. efficacy of <20 and potency of >10,000))”.

On to “5-Isopropyl-6-methyl-4-trifluoromethyl-7H-pyrrolo[3,2-f]quinolin-2(1H)-one [Compound 113]”, for which the Ki at human AR [1] (read-out: AR Binding Ki) stood at 529 nM. For the same molecule, the EC50 on human AR [2] (setting [4]) is over 10000 nM. Moreover, on human AR [2], the “AR Agonist CV-1 Cells Efficacy (%)” value is “na (na = not active (i.e. efficacy of <20 and potency of >10,000))”. Besides, the IC50 at human AR [3] (setting [5]) came out at 316 nM. Further, the “AR Antagonist CV-1 Cells Efficacy (%)” value on human AR [3] is 65%.

For the molecule “6-(1-Methoxyethyl)-5-methyl-7-(2,2,2-trifluoroethyl)-4-trifluoromethyl-7H-pyrrolo[3,2-f]quinolin-2(1H)-one [Compound 172]”, the Ki at human AR [1] (read-out: AR Binding Ki) is 12 nM. The EC50 at human AR [2] (setting [4]) is 19 nM. Also, the “AR Agonist CV-1 Cells Efficacy (%)” value on human AR [2] amounted to 89%. The IC50 at human AR [3] (setting [5]) is over 10000 nM. The “AR Antagonist CV-1 Cells Efficacy (%)” value on human AR [3] was “na (na = not active (i.e. efficacy of <20 and potency of >10,000))”.

On to “6-Ethyl-5-methyl-7-(2,2,2-trifluoroethyl)-7H-pyrrolo[3,2-f]quinolin-2(1H)-one [Compound 151]”, for which, on human AR [1] (read-out: AR Binding Ki), the inhibition constant (Ki) came to 48 nM. Also, the EC50 on human AR [2] (setting [4]) turned out to be 120 nM. For the same molecule, the “AR Agonist CV-1 Cells Efficacy (%)” value on human AR [2] is reported as 36%. The IC50 at human AR [3] (setting [5]) was 5.9 nM. Further, the “AR Antagonist CV-1 Cells Efficacy (%)” value on human AR [3] is listed as 57%.

Take “6-Methyl-4-trifluoromethyl-7H-pyrrolo[3,2-f]quinolin-2(1H)-one [Compound 112]”: the inhibition constant (Ki) on human AR [1] (read-out: AR Binding Ki) came to 119 nM. Also, the EC50 at human AR [2] (setting [4]) was over 10000 nM. Besides, on human AR [2], the “AR Agonist CV-1 Cells Efficacy (%)” value was “na (na = not active (i.e. efficacy of <20 and potency of >10,000))”. At human AR [3] (setting [5]), the IC50 came to 10 nM. Besides, on human AR [3], the “AR Antagonist CV-1 Cells Efficacy (%)” value was 75%.

Turning to “6-Methyl-7-(2,2,2-trifluoroethyl)-4-trifluoromethyl-7H-pyrrolo[3,2-f]quinolin-2(1H)-one [Compound 152]”, the Ki on human AR [1] (read-out: AR Binding Ki) amounted to 67 nM. Besides, at human AR [2] (setting [4]), the EC50 amounted to 4.9 nM. Also, at human AR [2], the “AR Agonist CV-1 Cells Efficacy (%)” value turned out to be 74%. Also, on human AR [3] (setting [5]), the IC50 was over 10000 nM. Moreover, the “AR Antagonist CV-1 Cells Efficacy (%)” value at human AR [3] is “na (na = not active (i.e. efficacy of <20 and potency of >10,000))”.

The molecule `O=c1cc(C(F)(F)F)c2c3c(ccc2[nH]1)N(CC(F)(F)F)C1CCCC31` (racemic) [Compound 119, (±)-4c,5,6,7,7a(cis),8-Hexahydro-8-(2,2,2-trifluoroethyl)-4-trifluoromethylcyclopentano-[g]pyrrolo[3,2-f]quinolin-2(1H)-one] gave an inhibitory constant (Ki) on human AR [1] (AR Binding Ki (nM)) of 2.6 nM. The molecule also came in with an EC50 on human AR [2] (setting [6]) of 2.5 nM. Further, the “AR Agonist CV-1 Cells Efficacy (%)” value at human AR [2] worked out at 94%. Also, the IC50 at human AR [3] (setting [7]) is over 10000 nM. Moreover, the “AR Antagonist CV-1 Cells Efficacy (%)” value on human AR [3] is “na (na = not active (i.e. efficacy of <20 and potency of >10,000))”.

For the molecule `O=c1cc(C(F)(F)F)c2cc3c(cc2[nH]1)C1CCCC1N3CC(F)(F)F` (racemic) [Compound 120, (±)-6,6a,7,8,9,9a(cis)-Hexahydro-6-(2,2,2-trifluoroethyl)-4-trifluoromethylcyclopentano-[i]pyrrolo[2,3-g]quinolin-2(1H)-one], at human AR [1] (AR Binding Ki (nM)), the Ki was found to be 12 nM. The EC50 at human AR [2] (setting [6]) came to 4.5 nM. On human AR [2], the “AR Agonist CV-1 Cells Efficacy (%)” value was 117%. The IC50 on human AR [3] (setting [7]) is over 10000 nM. Further, on human AR [3], the “AR Antagonist CV-1 Cells Efficacy (%)” value was “na (na = not active (i.e. efficacy of <20 and potency of >10,000))”.

As for `CCN1c2ccc3[nH]c(=O)cc(C(F)(F)F)c3c2C2CCCC21` (racemic) [Compound 121, (±)-4c,5,6,7,7a(cis),8-Hexahydro-8-ethyl-4-trifluoromethylcyclopentano-[g]pyrrolo[3,2-f]quinolin-2(1H)-one], at human AR [1] (AR Binding Ki (nM)), the inhibition constant (Ki) stood at 7.6 nM. The EC50 on human AR [2] (setting [6]) worked out at 43 nM. Besides, the “AR Agonist CV-1 Cells Efficacy (%)” value on human AR [2] came out at 97%. On human AR [3] (setting [7]), the IC50 is over 10000 nM. Moreover, on human AR [3], the “AR Antagonist CV-1 Cells Efficacy (%)” value was “na (na = not active (i.e. efficacy of <20 and potency of >10,000))”.
